Source: patent publication US20250051825A1, “Ex Vivo Production of Compounds of Interest” (Nederlandse Organisatie voor …, priority 2021, published 2025)

Experiments:
[1] = tested on: perfused porcine liver; assay: Midazolam continuous portal administration to ex vivo perfused porcine liver, metabolite quantified by UPLC/MS
[2] = tested on: perfused porcine liver; assay: Atorvastatin normothermic machine perfusion of ex vivo porcine liver, perfusate and bile analysed by LC/MS; assay type: in vitro ADME, Sus scrofa domesticus; conditions: for % billiary clearance (metabolite abundance as percentage of given Atorvastatin dose): 0-120 min, Atorva alone, 0.104 mg atorvastatin to portal vein, bile, n = 1
Procedure: Porcine Livers. Livers were obtained from a local slaughterhouse (Sus scrofa domesticus, approximately at the age of 6 months, with body weight between 100 and 120 kg). Pigs were sacrificed by a standardized procedure of electrocution followed by exsanguination. Thereafter, 3 L of blood was collected in a container supplemented with 25,000 IU of heparin. All abdominal organs were dissected outside the animal and collected. Within 20 minutes after termination, the vena porta was cannulated and directly flushed by gravity with 3 L of NaCl 0.9% (Baxter BV, Utrecht, The Netherlands) supplemented with 5000 IU of heparin followed by 2 L of ice-cold histidine-tryptophan-ketoglutarate solution (Plegistore, Warszawa, Poland). In the meantime, the arteria hepatica was dissected, cannulated, and subsequently flushed with histidine-tryptophan-ketoglutarate. At the laboratory, side branches were ligated, and the common bile duct was cannulated, whereas the ductus cysticus, derived from the gall bladder, was ligated. Normothermic Machine Perfusion. The porcine livers were perfused using the LiverAssist device (XVIVO, Groningen, The Netherlands). The machine consists of two rotary pumps that provide a pulsatile flow to the hepatic artery and a continuous flow to the portal vein. The system was filled with 2 L perfusion fluid containing red blood cells and perfusate (Table 2). […] Additionally, amino acids and vitamins were continuously provided to keep the liver metabolically active. Gas delivery to the LiverAssist consisted of 95% oxygen and 5% carbon dioxide at 2 L/min, and the temperature was set at 39 C (body temperature pigs). […] Arterial blood gas samples were taken hourly to monitor liver viability (PH, glucose, Na, K, lactate, etc.) using the i-STAT clinical analyzer (Abbot Point of Care Inc., Princeton, NJ). […] Time of starting the slow bolus was set at t=0 min. […] Drug concentrations in perfusate, bile and liver biopsies were determined by LC-MS/MS analysis as described below. […] Briefly, 20 μL of sample was extracted by adding 100 μL of acetonitrile containing internal standard. […] Samples were then mixed with 50 μL of water, vortexed and injected in to LC/MS for quantification. The mass spectrometer (AB Sciex API 5500) was operated in electrospray positive ion mode with the capillary voltage of 5.5 kV and Spray temperature of 550° C. The multiple reaction monitoring transitions used for all the compounds are shown table 4.

[3] = 240 min of perfusion, input of 49.8 mg midazolam
[4] = from 40 mg midazolam (as summarised in description)

O=C(O)[C@H]1O[C@@H](OCc2ncc3n2-c2ccc(Cl)cc2C(c2ccccc2F)=NC3)[C@H](O)[C@@H](O)[C@@H]1O [1-OH midazolam glucuronide, midazolam 1′O-glucuronide]
presence in perfusate (chromatogram) ([1]; 240 min after starting the portal administration of midazolam): (abundant) presence | Yield 1-OH midazolam glucuronide, Bile [1, 3]: 0.254 mg | Yield 1-OH midazolam glucuronide, Perfusate [1, 3]: 1.19 mg | Yield 1-OH midazolam glucuronide, Tissue [1, 3]: 1.891 mg | Yield 1-OH midazolam glucuronide, Total ([1]; 240 min of perfusion, input of 49.8 mg midazolam, sum of perfusate, bile, tissue): 3.33 mg 1-OH midazolam glucuronide | metabolite obtained from liver tissue [1, 4]: 2 mg | metabolite obtained from plasma and bile [1, 4]: 1.5 mg | total metabolite produced [1, 4]: 3.5 mg

CC(C)c1c(C(=O)Nc2ccccc2O)c(-c2ccccc2)c(-c2ccc(F)cc2)n1CCC1CC(O)CC(=O)O1 (stereo not drawn) [2-hydroxy atorva lactone, 2-hydroxy atorvastatin lactone]
% billiary clearance (metabolite abundance as percentage of given Atorvastatin dose) [2]: 3.48%

CC(C)c1c(C(=O)Nc2ccccc2)c(-c2ccccc2)c(-c2ccc(F)cc2)n1CC[C@@H](O)C[C@@H](O)CC(=O)O [atorvastatin, Atorvastatin, reference compound]
time until atorvastatin was detected in the bile ([2]; after the start of the bolus administration, slow bolus of 0.104 mg over 10 minutes to portal vein): ≤ 10 min | parent compound secreted into the bile ([2]; within 120 min of perfusion, 0.104 mg to portal vein): 13.0±5.6%

CC(C)c1c(C(=O)Nc2ccccc2)c(-c2ccccc2)c(-c2ccc(F)cc2)n1CC[C@@H]1C[C@@H](O)CC(=O)O1 [Atorvastatin lactone]
% billiary clearance (metabolite abundance as percentage of given Atorvastatin dose) [2]: 9.17%

CC(C)c1c(C(=O)Nc2ccc(O)cc2)c(-c2ccccc2)c(-c2ccc(F)cc2)n1CC[C@@H](O)C[C@@H](O)CC(=O)O [4-hydroxy atorva, 4-hydroxy atorvastatin]
% billiary clearance (metabolite abundance as percentage of given Atorvastatin dose) [2]: 10.28%

CC(C)c1c(C(=O)Nc2ccc(O)cc2)c(-c2ccccc2)c(-c2ccc(F)cc2)n1CCC1CC(O)CC(=O)O1 (stereo not drawn) [4-hydroxy atorva lactone, 4-hydroxy atorvastatin lactone]
% billiary clearance (metabolite abundance as percentage of given Atorvastatin dose) [2]: 0.400%

CC(C)c1c(C(=O)Nc2ccccc2O)c(-c2ccccc2)c(-c2ccc(F)cc2)n1CCC(O)CC(O)CC(=O)O (stereo not drawn) [2-hydroxy atorva, 2-hydroxy atorvastatin]
% billiary clearance (metabolite abundance as percentage of given Atorvastatin dose) [2]: 5.33%
